From patent publication US20080039442A1, “Compounds With Kv4 Ion Channel Activity” (Devgen NV, priority 2004, published 2008)

Tests used:
hERG potassium channel = hERG potassium channel (Homo sapiens, UniProt Q12809)
[1] = test system: isolated guinea pig right ventricular papillary muscle; assay: Ex-vivo functional refractory period in isolated guinea pig papillary muscle; settings: conc 10^−5 mol/l
From the text: (§1) The compounds were checked for their effect on the force of contraction, stimulation threshold and for the Functional Refractory Period (FRP) in isolated rat left atria (Rat LA). Rat left atria functionally express the Kv4.3 ion channel, producing the Ito current of the action potential. […] The guinea pig action potential is dominated by hERG like ion channels for the refractory currents. Consequently, activity of hERG channels in vivo should be seen in GP papillary muscle preparations.
Method: Rat LA (Same Method Applies to GP Pap. Muscle)
Left atria were mounted vertically in a two-chambered organ bath containing 100 ml of buffer solution (in mM: NaH2PO4 0.6, MgSO4 0.6, KCl 4.7, NaHCO3 25, glucose 4.5, NaCl 120, CaCl2 2.4). The solution was saturated with and circulated by a gas mixture containing 95% O2 and 5% CO2. The temperature was kept constant at 30° C. […] The isometric force of the preparations was measured by force transducers, connected to amplifiers, documented by a pen recorder and fed into a computer for evaluation. Force of contraction (FC), threshold stimulus (TS) and the functional refractory period (FRP) were measured at baseline (pre), 20 min after addition of compound, and after washout at the end of the experiment. Threshold stimulus, representing excitability of the tissue, was assessed by varying the voltage applied for electrical stimulation. […]

isolated rat left atria = assay: Ex-vivo functional refractory period in isolated rat left atria; settings: conc 10^−5 mol/l
From the text: as §1
Left atria were mounted vertically in a two-chambered organ bath containing 100 ml of buffer solution (in mM: NaH2PO4 0.6, MgSO4 0.6, KCl 4.7, NaHCO3 25, glucose 4.5, NaCl 120, CaCl2 2.4). […] The isometric force of the preparations was measured by force transducers, connected to amplifiers, documented by a pen recorder and fed into a computer for evaluation. Force of contraction (FC), threshold stimulus (TS) and the functional refractory period (FRP) were measured at baseline (pre), 20 min after addition of compound, and after washout at the end of the experiment. Threshold stimulus, representing excitability of the tissue, was assessed by varying the voltage applied for electrical stimulation. […] The functional refractory period, representing the time needed for repolarization, was assessed by applying extra stimuli at varying time intervals from the preceding regular pacing stimulus. […]

[2] = test system: conscious telemetric mice; assay: Telemetric ECG in conscious mice, consecutive i.p. dosing; type: in vivo, mice (NRMI)
Experimental: Male mice (NRMI) were anesthetized with a gas mixture of isoflurane, nitrous oxide and oxigen. Leads connected to a telemetry transmitter (TA10EA-F20, DSI, St. Paul, USA) were fixed by suture in the xiphoid and ventral neck region. The telemetry transmitter was placed under the skin on the back. Wounds were closed in layers and the animals were allowed to recover for at least 1 week.
On the day of the experiment the animals receive consecutive doses of vehicle i.p. at 60 min dosing intervals. ECG tracings (12 s duration) was recorded using the Data Sciences A.R.T. system. After completion of the experiment ECGs were analyzed automatically by Data Sciences ECG software (DSI, St. Paul, USA). QT and QRS intervals were measured manually in the stored ECGs. QTc was calculated from the QT interval and the corresponding heart rate using Bazett's formula. Heart rate was taken from the online analysis, given by the DSI Labpro and DSI A.R.T. systems (DSI, St. Paul, USA). Finally, ECG intervals were transferred to an Excel spreadsheet, checked for plausibility, and converted into 15 min averages.

hERG potassium channel, sequence (Q12809 whole entry): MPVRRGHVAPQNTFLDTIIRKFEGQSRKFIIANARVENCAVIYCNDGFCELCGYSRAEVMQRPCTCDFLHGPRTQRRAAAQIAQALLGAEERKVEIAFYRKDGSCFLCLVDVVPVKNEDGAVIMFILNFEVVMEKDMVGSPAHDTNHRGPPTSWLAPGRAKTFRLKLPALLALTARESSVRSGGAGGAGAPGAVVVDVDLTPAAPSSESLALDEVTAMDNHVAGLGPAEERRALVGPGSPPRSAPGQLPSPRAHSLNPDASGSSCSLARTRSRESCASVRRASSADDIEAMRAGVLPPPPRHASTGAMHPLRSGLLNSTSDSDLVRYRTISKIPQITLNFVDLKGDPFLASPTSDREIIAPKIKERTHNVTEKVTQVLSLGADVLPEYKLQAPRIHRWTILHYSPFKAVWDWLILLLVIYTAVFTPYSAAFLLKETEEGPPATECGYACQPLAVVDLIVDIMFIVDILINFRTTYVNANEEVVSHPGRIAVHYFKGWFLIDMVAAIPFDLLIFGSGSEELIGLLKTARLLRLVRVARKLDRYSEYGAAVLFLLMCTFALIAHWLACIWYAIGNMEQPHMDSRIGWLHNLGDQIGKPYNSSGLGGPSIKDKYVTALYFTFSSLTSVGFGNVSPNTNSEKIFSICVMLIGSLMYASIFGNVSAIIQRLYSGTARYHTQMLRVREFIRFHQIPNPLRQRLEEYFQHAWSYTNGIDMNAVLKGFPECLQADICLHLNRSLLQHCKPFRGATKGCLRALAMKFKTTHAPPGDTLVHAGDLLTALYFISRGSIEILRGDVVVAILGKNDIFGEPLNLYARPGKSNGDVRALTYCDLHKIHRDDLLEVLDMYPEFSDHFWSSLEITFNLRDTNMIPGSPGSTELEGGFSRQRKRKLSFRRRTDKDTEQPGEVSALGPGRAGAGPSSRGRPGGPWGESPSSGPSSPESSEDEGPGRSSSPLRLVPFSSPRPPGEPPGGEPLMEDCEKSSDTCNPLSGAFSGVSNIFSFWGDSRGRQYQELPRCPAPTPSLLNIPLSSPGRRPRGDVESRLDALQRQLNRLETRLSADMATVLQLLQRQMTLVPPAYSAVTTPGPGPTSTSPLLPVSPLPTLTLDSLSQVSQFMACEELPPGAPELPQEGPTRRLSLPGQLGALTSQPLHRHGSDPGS

5-chloro-benzofuran-2- carboxylic acid 2,4- dimethoxy- benzylamide [Compound 2]
IC50 (hERG potassium channel): 16.7 µM
Ratio hERG/Kv4.3 (hERG potassium channel): 9.6
dFRP Guinea Pig [1]: 0 ms
dFRP Rat (isolated rat left atria): 17 ms
maximum prolongation of QTc ([2]; 15 μmol/kg i.p., highest dose tested, Bazett, n=5): 33 ms
maximum prolongation of QT ([2]; 15 μmol/kg i.p., highest dose tested, n=5): 12 ms
Heart rate (result in words) ([2]; 3-15 μmol/kg i.p.): minor and not significant decrease
Locomotor activity (result in words) ([2]; 3-15 μmol/kg i.p.): reproducible rise after each of the subsequent injections
PQ and QRS (result in words) ([2]; 3-15 μmol/kg i.p.): did not show dose-dependent changes
